System: UQCRB mutant cell strains MT1 and MT2
Experiment: MTT colorimetric assay of cell growth after treatment with cholesterol synthesis inhibitors
Type: cell-based
Conditions: FIGS. 11 to 13
Source text: FIG. 11 represents MTT colorimetric assay showing the cell growth of HEK293, MT1, and MT2 cells treated with a cholesterol inhibitor.
FIG. 12 represents MTT colorimetric assay showing the cell growth of HEK293, MT1, and MT2 cells treated with a cholesterol inhibitor.
FIG. 13 represents MTT colorimetric assay showing the cell growth of HEK293, MT1, and MT2 cells treated with a cholesterol inhibitor.
For the purpose of verifying validity for selection of cholesterol metabolic process as a pathway in which UQCRB was participated, a cholesterol synthesis inhibitor was processed in UQCRB mutant cell strains to measure an effect that the cholesterol synthesis inhibitor affects growth of the UQCRB mutant cell strains, and the result thereof was shown in FIGS. 11 to 13.

Row | SMILES | growth of the UQCRB mutant cell strains MT1 and MT2
1 | CC[C@H](C)C(=O)O[C@H]1CCC=C2C=C[C@H](C)[C@H](CC[C@@H]3C[C@@H](O)CC(=O)O3)[C@H]21 [Mevastatin] | inhibited
2 | F/C(COc1ccc2c(c1)[nH]c1ccccc12)=C1/CN2CCC1CC2 [YM-53601] | inhibited
